Data on one molecule can be found in patent publication US20150045610A1, “METHOD OF MODIFYING SPERMATOGENESIS, SPERMIOGENESIS AND/OR FERTILITY IN MAMMALS” (Monell Chemical Senses Center, priority 2012, published 2015).

This test has as its target T1, humanized mhT1R3 (Homo sapiens, UniProt Q7RTX0, A109T/A120V/A176D/A197V/A198V/A228S/A231N/A248T/A280V/A282S/A302S/A412V/A417V/A46T/A537T/C375D/D124S/D249S/D250G/D364H/D419E/D470T/D491G/D88A/DEL352-352/DEL488-489/E172D/E199T/E203N/E217D/E356N/E45S/E481Q/E505D/E525K/E545Q/F540P/F555L/G168S/G205S/G311T/G314N/G355L/G360D/G414H/G438R/G439D/G463S/G50T/G542N/H261R/H278R/H281Y/H332P/I485M/I536F/INS376MLQNLSSG/K32Q/K339E/K422L/K494V/K86G/L173R/L245Q/L272V/L29F/L354S/L385Q/L433M/L458M/L483S/L71F/L74M/M151L/M315I/M318V/M31A/N285S/N386L/N532H/N68L/P112S/P246H/P335S/P416H/P420H/P441T/P60I/Q221E/Q257L/Q317R/Q330L/Q336H/Q359L/Q372R/Q418S/Q504K/Q531K/R123Q/R247D/R252Q/R291G/R30K/R357A/R443Q/R467V/R473T/R479Q/R482Q/R486Y/R498Q/R52N/R550K/R553A/R556P/R560K/R56Q/S251Q/S267K/S289H/S290H/S392A/S446A/S447E/S464P/S477T/S490P/S53Q/S559P/S58N/S67P/T195Q/T346A/T377L/T390I/T434S/T480L/T63N/V152I/V277A/V366M/V36I/V381L/V393T/V437A/V465T/V61P/W72L).
T1 construct: the extracellular domain is of mouse origin and the transmembrane and intracellular domains of human origin; mouse T1R3 extracellular domain (fusion partner replacing the human extracellular domain); expressed in transfected cells; host or cells: transgenic Line 7c mice (T1R3-/-, Gus-/-, mhT1R3+/-)
T1 sequence (Q7RTX0 with tags, fused parts or gaps L29F/R30K/M31A/K32Q/V36I/E45S/A46T/G50T/R52N/S53Q/R56Q/S58N/P60I/V61P/T63N/S67P/N68L/L71F/W72L/L74M/K86G/D88A/A109T/P112S/A120V/R123Q/D124S/M151L/V152I/G168S/E172D/L173R/A176D/T195Q/A197V/A198V/E199T/E203N/G205S/E217D/Q221E/A228S/A231N/L245Q/P246H/R247D/A248T/D249S/D250G/S251Q/R252Q/Q257L/H261R/S267K/L272V/V277A/H278R/A280V/H281Y/A282S/N285S/S289H/S290H/R291G/A302S/G311T/G314N/M315I/Q317R/M318V/Q330L/H332P/P335S/Q336H/K339E/T346A/DEL352-352/L354S/G355L/E356N/R357A/Q359L/G360D/D364H/V366M/Q372R/C375D/INS376MLQNLSSG/T377L/V381L/L385Q/N386L/T390I/S392A/V393T/A412V/G414H/P416H/A417V/Q418S/D419E/P420H/K422L/L433M/T434S/V437A/G438R/G439D/P441T/R443Q/S446A/S447E/L458M/G463S/S464P/V465T/R467V/D470T/R473T/S477T/R479Q/T480L/E481Q/R482Q/L483S/I485M/R486Y/DEL488-489/S490P/D491G/K494V/R498Q/Q504K/E505D/E525K/Q531K/N532H/I536F/A537T/F540P/G542N/E545Q/R550K/R553A/F555L/R556P/S559P/R560K limits assumed): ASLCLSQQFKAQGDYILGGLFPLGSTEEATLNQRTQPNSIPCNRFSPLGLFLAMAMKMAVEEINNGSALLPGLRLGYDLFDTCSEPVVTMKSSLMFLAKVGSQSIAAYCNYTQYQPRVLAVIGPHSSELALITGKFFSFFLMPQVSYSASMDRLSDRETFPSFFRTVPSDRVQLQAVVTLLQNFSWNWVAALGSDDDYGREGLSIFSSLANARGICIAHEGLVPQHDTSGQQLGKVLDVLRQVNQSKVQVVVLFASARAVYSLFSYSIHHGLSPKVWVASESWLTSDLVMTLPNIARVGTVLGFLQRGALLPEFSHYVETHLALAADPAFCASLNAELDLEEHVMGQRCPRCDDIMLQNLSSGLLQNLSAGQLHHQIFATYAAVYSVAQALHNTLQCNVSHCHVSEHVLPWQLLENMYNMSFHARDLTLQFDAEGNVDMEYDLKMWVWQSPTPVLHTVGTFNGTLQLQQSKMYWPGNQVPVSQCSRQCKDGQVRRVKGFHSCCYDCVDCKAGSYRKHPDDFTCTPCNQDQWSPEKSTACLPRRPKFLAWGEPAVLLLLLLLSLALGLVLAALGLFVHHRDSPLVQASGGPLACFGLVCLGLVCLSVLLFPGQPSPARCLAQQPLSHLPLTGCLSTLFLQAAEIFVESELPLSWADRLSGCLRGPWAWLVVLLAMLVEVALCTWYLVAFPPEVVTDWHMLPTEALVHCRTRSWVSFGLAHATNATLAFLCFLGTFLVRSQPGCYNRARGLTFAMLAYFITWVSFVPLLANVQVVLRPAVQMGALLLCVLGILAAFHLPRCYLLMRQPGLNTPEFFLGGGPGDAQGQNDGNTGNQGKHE
Description: T1R3 pharmacological block with clofibrate diet (male reproduction). The class given is in vivo, mouse. Conditions: line 7c males on clofibrate diet, mated with WT females. The procedure:
Matched groups (six males each) of WT and line 7c mice (expressing the chimerical mhT1R3 transgene on a T1R3/α-gustducin double-null background), 3-6 months old, were fed the indicated diets for 4-6 weeks. Each genotype was tested in two groups, one on the regular diet and one on a test diet with clofibrate. An additional group of males stayed on the test diet for another 4-6 weeks, during which time they were mated with WT females to determine whether the pharmacological intervention was effective. Then the animals were allowed to recover on the regular diet for an additional 4 weeks after the end of the treatment (half-time for total sperm turnover in mice), and again were tested for their reproductive capacity, and then their tissues were analyzed. […]
We observed spermatozoa after clofibrate treatment represent cells that were able to escape the inhibition of clofibric acid, most likely due to very fast clearance and fluctuating levels in rodents. […] Therefore, we measured sperm concentration as an indicator of efficiency of the pharmacological block and to be able to determine the concentration that results in effective sterility. We analyzed testicular morphology, sperm production, sperm motility and sperm function in in vitro fertilization after feeding these animals with the lipid lowering drug clofibrate. […]

In the case of `CC(C)(Oc1ccc(Cl)cc1)C(=O)O` [clofibric acid], the male fertility result is listed as “significantly affected male fertility”.
